The target of this experiment is protein disulfide isomerase (PDI) (Homo sapiens, UniProt P07237). Kind of experiment: 1H-15N HSQC NMR chemical shift perturbation. It is filed as binding.
protein disulfide isomerase (PDI), sequence (P07237 18-137): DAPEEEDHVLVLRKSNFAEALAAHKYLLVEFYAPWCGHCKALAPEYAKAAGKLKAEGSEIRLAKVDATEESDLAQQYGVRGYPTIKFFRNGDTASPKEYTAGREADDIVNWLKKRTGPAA

Take `O=C1C=C2C=C[C@@H]3C[C@@]2(O1)[C@H]1CCCCN31` [IBS141, securinine]: the Kd came out at 758 ± 129 µM.

The values are drawn from publication PMC4603724 (ACS Medicinal Chemistry Letters, 2015).
